Measurements published in patent EP1940519B1, “Pharmaceutical composition comprising artesunate, sulfamethoxypyrazine and pyrimethamine for use in the treatment of malaria within one day” (Dafra Pharma N.V., priority 2005, dated 2007).

Tests used:
[1] = fatty meal (approximately 30 g of fat) versus low-fat meal; with artesunate 8 mg/kg and mefloquine 15 mg/kg over 12h; cited from earlier work
[2] = tested on: uncomplicated falciparum malaria; conditions: area of multi-drug resistance, Thai-Burmese border; cited from earlier work
[3] = tested on: Plasmodium falciparum malaria; conditions: India; number among the 89 subjects who completed the study; cited from earlier work
[4] = in vivo
Method: Treatment safety was assessed clinically as well as by measuring hematological indices and serum creatinine and hepatic transaminase concentrations. The sample size was computed assuming equal efficacy of the two treatments, and 606 patients (303 in each treatment arm) were enrolled over two consecutive malaria transmission seasons.

In the case of OC(c1cc(C(F)(F)F)nc2c(C(F)(F)F)cccc12)C1CCCCN1 (stereo not shown) [MQ, mefloquine], the bioavailability of mefloquine [1] is given as “does not appear to increase the bioavailability” and the “Overall failure rates by day 28” value [2] is given as 24%.
For CCN(CC)CCCC(C)Nc1ccnc2cc(Cl)ccc12 (stereo not shown) [chloroquine], the treatment failures [3] is given as 46.
For artemether-lumefantrine, the “mild and transient elevation of transaminases” value [4] was 0/72.
